Results taken from publication PMC10257182, “Discovery of senolytics using machine learning” (Nature Communications, 2023).
Read-outs that look alike come from different tables or passages of the source.

System: non-senescent control IMR90 ER:RAS cells
Test: Nuclei count (Hoechst, high content imaging) senolytic assay, OIS model, non-senescent control cells
Type: cell-based, human
Details: Homo sapiens
From the text: To test for senolytic activity, we compared the effect of each compound on the total cell number (automated high content image-based analysis of total number of nuclei per well) in non-senescent and senescent IMR90 ER:RAS cultures treated with the top hits from the computational screen (Figs. 2e and 3a–d and Supplementary Fig. 4a–c). The drop in cell number compared to untreated controls is indicated by the nuclei count and reflects cell death[13],[15]. As positive control, we employed ouabain, a cardiac glycoside with well characterised senolytic activity.
We performed experimental validation of the compounds with z-score > 8 (Fig. 2e). […] We employed two cellular models of senescence: one of OIS and a second one of TIS. For the OIS case, we utilised IMR90 ER:RAS cells with 4-OHT at 100 nM. […] For the TIS model, we used A549 cells with etoposide at 100 μM. The exposure of the cells to etoposide lasted 48 h, after which period the cells were cultivated for a further three days with normal media.
IMR90 (CCL-186) human foetal lung fibroblasts and A549 (CCL-185) human lung adenocarcinoma cells were obtained from the American Type Culture Collection (ATCC, Manassas, VA). The cell lines were confirmed to be mycoplasma negative (Lonza MycoAlert, cat #LT07-118). IMR90 ER:RAS is a derivative of IMR90 cells expressing a switchable version of oncogenic H-Ras[84]. IMR90 ER:RAS and A549 cells were maintained in Dulbecco’s Modified Eagle Medium (DMEM, ThermoFisher) supplemented with foetal bovine serum (10%), L-glutamine (2 mM, ThermoFisher), and antibiotic-antimycotic solution (1%, ThermoFisher) and incubated under standard tissue culture conditions (37 °C and 5% CO2). For induction of the senescent phenotype, IMR90-ER:RAS cells were cultured in hydroxytamoxifen (4-OHT) (Sigma) added media at 100 nM final concentration. IMR90 were kept in culture for over 27 passages for replicative senescence. Cells were tested for mycoplasma on a regular basis.
Cells were seeded (50 μL per well) into 384-well plates (IMR90 ER:RAS cells in Nunc Optical Bottom Polybase Microplates [#142761, Thermo Scientific, Rochester, NY] and A549 cells in CELLSTAR Cell Culture Microplates [#781091, Greiner Bio-One, Kremsmünster, Austria]). Cells were incubated under standard tissue culture conditions for 24 h before the addition of compounds. Passage 14 IMR90 ER:RAS cells were seeded at 1300 cells per well in the control condition, and at 1600 cells per well in the senescent case. Passage 34 A549 cells were seeded at 7000 cells per well in the control condition, and at 10,000 cells per well in the senescent case.
Dose response plates were prepared with a DMSO control and a 10-point […] concentration range, and added to the compounds using a D300e digital dispenser (Tecan Trading AG, Switzerland) at a final concentration of between 10 μM and 10 nM. Every screened condition was carried out in triplicate. After 72 h of incubation with exposure to the compounds, cells were fixed by the addition of an equal volume of formaldehyde (8%, 50 μL; #BP531-500, Fisher Bioreagents, Fisher Scientific, Loughborough, Leicestershire) to the existing media, incubated at room temperature (30 min), and washed three times in phosphate-buffered saline (PBS). Cells were then permeabilised in Triton-X100 (0.1%, 50 μL) and incubated at room temperature (30 min) followed by three more washes with PBS.
Cells were stained with Hoechst 33342 for nuclei count (excitation/emission wavelength at 387/447 […], DAPI channel, original concentration at 10 mg/ml, final concentration at 2 μg/ml; H1399, Molecular Probes, Eugene, OR). The staining solution was prepared in bovine serum albumin solution (10%). The staining solution was added to each well (30 μL) and incubated in the dark at room temperature (30 min), followed by three washes with PBS and no final aspiration. Plates were foil sealed.

[1] = IMR-90, 72 h, Control, log (dose) [M] -5, 72 h, mean n=3 (Fig 3C), read-out: Mean % Cell Survival
[2] = IMR-90, 72 h, Control, log (dose) [M] -5.33, 72 h, mean n=3 (Fig 3C), read-out: Mean % Cell Survival
[3] = IMR-90, 72 h, Control, log (dose) [M] -5.66, 72 h, mean n=3 (Fig 3C), read-out: Mean % Cell Survival
[4] = IMR-90, 72 h, Control, log (dose) [M] -6, 72 h, mean n=3 (Fig 3C), read-out: Mean % Cell Survival
[5] = IMR-90, 72 h, Control, log (dose) [M] -6.33, 72 h, mean n=3 (Fig 3C), read-out: Mean % Cell Survival
[6] = IMR-90, 72 h, Control, log (dose) [M] -6.66, 72 h, mean n=3 (Fig 3C), read-out: Mean % Cell Survival
[7] = IMR-90, 72 h, Control, log (dose) [M] -7, 72 h, mean n=3 (Fig 3C), read-out: Mean % Cell Survival
[8] = IMR-90, 72 h, Control, log (dose) [M] -7.33, 72 h, mean n=3 (Fig 3C), read-out: Mean % Cell Survival
[9] = IMR-90, 72 h, Control, log (dose) [M] -7.66, 72 h, mean n=3 (Fig 3C), read-out: Mean % Cell Survival
[10] = IMR-90, 72 h, Control, log (dose) [M] -8, 72 h, mean n=3 (Fig 3C), read-out: Mean % Cell Survival
[11] = IMR-90, Control cells, log (dose) [M] -5.66, individual replicates, SUP FIG 4C, read-out: % Cell Survival
[12] = IMR-90, Control cells, log (dose) [M] -6.33, individual replicates, SUP FIG 4C, read-out: % Cell Survival
[13] = IMR-90, Control cells, log (dose) [M] -7.33, individual replicates, SUP FIG 4C, read-out: % Cell Survival
[14] = IMR-90, Control cells, log (dose) [M] -7.66, individual replicates, SUP FIG 4C, read-out: % Cell Survival
[15] = IMR-90, Control cells, log (dose) [M] -8, individual replicates, SUP FIG 4C, read-out: % Cell Survival
[16] = IMR-90, Control, log (dose) [M] -5, read-out: % Cell Survival
[17] = IMR-90, Control, log (dose) [M] -5.33, read-out: % Cell Survival
[18] = IMR-90, Control, log (dose) [M] -5.66, read-out: % Cell Survival
[19] = IMR-90, Control, log (dose) [M] -6.66, read-out: % Cell Survival
[20] = IMR-90, Control, log (dose) [M] -7, read-out: % Cell Survival
[21] = IMR-90, Control, log (dose) [M] -7.33, read-out: % Cell Survival
[22] = IMR-90, Control, log (dose) [M] -7.66, read-out: % Cell Survival
[23] = IMR-90, Control, log (dose) [M] -8, read-out: % Cell Survival
[24] = IMR-90, Control cells, log (dose) [M] -5, individual replicates, SUP FIG 4C, read-out: % Cell Survival
[25] = IMR-90, Control cells, log (dose) [M] -5.33, individual replicates, SUP FIG 4C, read-out: % Cell Survival
[26] = IMR-90, Control cells, log (dose) [M] -7, individual replicates, SUP FIG 4C, read-out: % Cell Survival
[27] = IMR-90, Control, log (dose) [M] -6.33, read-out: % Cell Survival

Compound: O=c1c(O)c(-c2ccc(O)cc2)oc2c(O)c(O)cc(O)c12 [Herbacetin, herbacetin]
- viability at 10 µM [1]: 100%
- viability at 4.677 µM [2]: 108%
- viability at 2.188 µM [3]: 97.9%
- viability at 1 µM [4]: 74.4%
- viability at 0.4677 µM [5]: 94.9%
- viability at 0.2188 µM [6]: 93.5%
- viability at 0.1 µM [7]: 94.6%
- viability at 0.04677 µM [8]: 102%
- viability at 0.02188 µM [9]: 109%
- viability at 0.01 µM [10]: 107%
- viability at 2.188 µM [11]: 94.1%
- viability at 0.4677 µM [12]: 105%
- viability at 0.04677 µM [13]: 100%
- viability at 0.02188 µM [14]: 120%
- viability at 0.01 µM [15]: 113%
- viability at 10 µM [16]: 97.9%
- viability at 4.68 µM [17]: 96.8%
- viability at 2.19 µM [18]: 91.6%
- viability at 0.219 µM [19]: 93.8%
- viability at 0.1 µM [20]: 91.7%
- viability at 0.04677 µM [21]: 92.8%
- viability at 0.0219 µM [22]: 98.3%
- viability at 0.01 µM [23]: 100%

Compound: O=c1c(O)c(-c2ccc(O)cc2O)oc2cc(O)cc(O)c12 [Morin, morin]
- viability at 10 µM [1]: 95.2%
- viability at 4.677 µM [2]: 93.9%
- viability at 2.188 µM [3]: 96.1%
- viability at 1 µM [4]: 81.3%
- viability at 0.4677 µM [5]: 91.6%
- viability at 0.2188 µM [6]: 86.4%
- viability at 0.1 µM [7]: 91.3%
- viability at 0.04677 µM [8]: 86.7%
- viability at 0.02188 µM [9]: 91.5%
- viability at 0.01 µM [10]: 99.5%
- viability at 10 µM [24]: 88.7%
- viability at 4.677 µM [25]: 93.4%
- viability at 2.188 µM [11]: 102%
- viability at 0.4677 µM [12]: 88.8%
- viability at 0.1 µM [26]: 98.5%
- viability at 0.01 µM [15]: 103%
- viability at 10 µM [16]: 102%
- viability at 2.19 µM [18]: 93.3%
- viability at 0.468 µM [27]: 110%
- viability at 0.219 µM [19]: 106%
- viability at 0.1 µM [20]: 91.9%
- viability at 0.0219 µM [22]: 98.9%
- viability at 0.01 µM [23]: 97.2%

Compound: Cc1cnc(C(=O)N[C@H]2CCCCC/C=C\[C@@H]3C[C@@]3(C(=O)NS(=O)(=O)C3CC3)NC(=O)[C@@H]3C[C@@H](Oc4nc5ccccc5c5ccccc45)CN3C2=O)cn1 [Paritaprevir, paritaprevir, reference compound]
- viability at 10 µM [1]: 95%
- viability at 4.677 µM [2]: 90.1%
- viability at 2.188 µM [3]: 102%
- viability at 1 µM [4]: 78.8%
- viability at 0.4677 µM [5]: 87.9%
- viability at 0.2188 µM [6]: 82.7%
- viability at 0.1 µM [7]: 81.5%
- viability at 0.04677 µM [8]: 87.1%
- viability at 0.02188 µM [9]: 88.3%
- viability at 0.01 µM [10]: 101%
- viability at 10 µM [24]: 93.1%
- viability at 4.677 µM [25]: 86.6%
- viability at 0.4677 µM [12]: 89.5%
- viability at 0.2188 µM (IMR-90, Control cells, log (dose) [M] -6.66, individual replicates, SUP FIG 4C, read-out: % Cell Survival): 83.1%
- viability at 0.1 µM [26]: 73.5%
- viability at 0.04677 µM [13]: 83%
- viability at 0.02188 µM [14]: 88%
- viability at 0.01 µM [15]: 102%
- viability at 10 µM [16]: 96%
- viability at 4.68 µM [17]: 96.2%
- viability at 2.19 µM [18]: 99.1%
- viability at 1 µM (IMR-90, Control, log (dose) [M] -6, read-out: % Cell Survival): 96.6%
- viability at 0.468 µM [27]: 97.8%
- viability at 0.219 µM [19]: 99.6%
- viability at 0.1 µM [20]: 94.1%
- viability at 0.04677 µM [21]: 94.2%
- viability at 0.0219 µM [22]: 97%
- viability at 0.01 µM [23]: 101%
